Values after ≈ are worked out from the molar mass of the structure shown. Read-outs that look alike come from different tables or passages of the source. A value given as a limit tells only on which side of the number the result lay.

Data set [1] relates to L. infantum promastigotes. Kind of data set: In vitro iRFP L. infantum promastigotes viability assay (infrared fluorescence). It counts as cell-based, Leishmania infantum. To be noted: 72 h, read-out: EC50 L. infantum promastigotes. As for the experimental part: (§1) Two series of aromathecins (Table 1) have been tested against both stages of L. infantum, free-living promastigotes and intracellular amastigotes harbored in mouse splenic cells. Experiments were carried out using a genetically modified L. infantum strain that constitutively produces the iRFP protein. This makes it possible to evaluate the viability of parasites measuring the fluorescence emitted at 708 nm.
The antiparasitic activity of the compounds was assessed on the genetically modified iRFP L. infantum strain, which constitutively produces the infrared fluorescent protein (iRFP) when cells are viable. iRFP L. infantum was grown at 26 °C in M-199 medium (Gibco) supplemented with 25 mM HEPES pH 7.2, 0.1 mM adenine, 0.0005% (w/v) hemin, 2 μg/mL biopterin, 0.0001% (w/v) biotin, 10% (v/v) heat-inactivated fetal bovine serum (FBS) and an antibiotic cocktail comprising 50 U/mL penicillin and 50 μg/mL streptomycin.
(§2) The viability of cultured parasites in the presence of different concentrations of aromathecins was determined by measuring the reduction of infrared fluorescence emitted by free-living promastigotes/amastigotes with respect to negative controls of each form of the parasite treated with DMSO (up to 0.1% final concentration) as a vehicle. […] After 72 h incubation at 26 °C, the infrared fluorescence emitted at 708 nm by viable promastigotes/amastigotes was measured in an Odyssey (Li-Cor) infrared imaging system. Similarly, the cytotoxic effect (CC50) of aromathecins on uninfected splenic explants from BALB/c mice (cells that naturally harbor the amastigote stage) was measured by the Alamar Blue (Invitrogen) assay. The selectivity index (SI) was determined as the relationship between the CC50 value and the EC50 value for amastigotes. CC50 and EC50 were calculated by nonlinear analysis using the Sigma-Plot 10.0 statistical package. The aromathecins were dissolved in DMSO and stored at − 20 °C before their use as fresh aliquots.

The test system of the next data set is L. infantum amastigotes. In words: Ex vivo murine splenic explant culture with intramacrophagic iRFP L. infantum amastigotes. It counts as cell-based, Leishmania infantum. To be noted: 72 h, read-out: EC50 L. infantum amastigotes. The method, then: as §1
Primary splenocyte cultures containing intramacrophagic amastigotes were obtained from dissected spleens of female BALB/c mice infected intraperitoneally with 1.5 × 10^9 metacyclic iRFP L. infantum promastigotes, 5 weeks before their sacrifice. Mice were obtained commercially (Janvier-Labs). Animals were housed in specific-pathogen free facilities and they were euthanized by cervical dislocation without anesthesia. These protocols were approved by the Animal Care Committee of University of Leon (project license SAF2017–83575-R), which complies with European Union Legislation (2010/63/UE) and Spanish Act (RD 53/2013).
(§3) The spleens were washed with cold phosphate-buffered saline (PBS), cut in small pieces and incubated for 20 min with 5 mL of 2 mg/mL collagenase D (Sigma) prepared in buffer (10 mM HEPES, pH 7.4, 150 mM NaCl, 5 mM KCl, 1 mM MgCl2 and 1.8 mM CaCl2). After that, the cell suspension obtained was passed through a 100 μm cell strainer, harvested by centrifugation (500×g for 7 min at 4 °C), washed twice with PBS, and cultured at 37 °C under 5% CO2 atmosphere in RPMI medium (Gibco) supplemented with 10 mM HEPES, 1 mM sodium pyruvate, 1xRPMI 1640 vitamin mix, 10% (v/v) FBS, 50 U/mL penicillin and 50 μg/mL streptomycin (Calvo-Álvarez et al., 2015).
as §2

A further data set relates to Murine Splenocytes. In words: Cytotoxicity on uninfected splenic explants (Alamar Blue). The format is cell-based, BALB/c mice. The method, then: as §3, §2
Test in data set [2]: as above
The format is cell-based, BALB/c mice. The following applies: mouse; uninfected splenic explants from BALB/c mice, Alamar Blue; read-out: CC50 Murine Splenocytes. The method, then: as §3, §2
In general terms: Resazurin is reduced to fluorescent resorufin, in cell work by metabolically active cells.

Data set [3] can be described thus: Solubility limit in culture medium. It counts as physicochemical. The following applies: M199 culture medium. As for the experimental part:
The CPT resistant strain used in this work was generated exposing L. infantum promastigotes to increased concentrations of CPT, from 0.1 to the solubility limit of the compound, 20 μM in the case of CPT. Parasites were grown at 26 °C in M199 medium supplemented as described previously, each culture being inoculated at an initial density of 10^6 cells/mL. The promastigotes cultured in liquid medium in the presence of 20 μM CPT, were plated on semisolid M199 medium containing 20 μM CTP in order to select a single colony.

With `C[C@@H]1[C@H](O)[C@@H](C)/C=C/C=C/C=C/C=C/C=C/C=C/C=C/[C@H](O[C@@H]2O[C@H](C)[C@@H](O)[C@H](N)[C@@H]2O)C[C@@H]2O[C@](O)(C[C@@H](O)C[C@@H](O)[C@H](O)CC[C@@H](O)C[C@@H](O)CC(=O)O[C@H]1C)C[C@H](O)[C@H]2C(=O)O` [AMB, reference compound], the EC50 was found to be 0.8 ± 0.1 µM in data set [1] (iRFP-L. infantum promastigotes, 26 °C, fluorescence at 708 nm, average of three experiments by duplicate) and 0.3 µM in the data set on L. infantum amastigotes (splenic-infecting amastigotes, ex vivo explants from infected BALB/c mice). The same compound displayed a CC50 in the data set on Murine Splenocytes above 20 µM.

As for `CC[C@@]1(O)C(=O)OCc2c1cc1n(c2=O)Cc2cc3ccccc3nc2-1` [CPT, Camptothecin, reference compound], the values for the EC50 (in data set [1] (Leishmania infantum); in the data set on L. infantum amastigotes (Leishmania infantum)) were 1.12 ± 0.13 µM and 0.03 ± 0.01 µM, respectively. Also, the CC50 at 72 h in data set [2] was 0.62 ± 0.01 µM. The compound further returned a solubility in data set [3] of 20 µM (≈ 6.97 µg/mL).

As a reminder, the EC50 is the midpoint of the concentration-response curve. A word on the CC50: it is the concentration at which the toxic effect on the cells reaches its halfway point. The solubility is how much of the substance goes into solution per volume.

For the origin of these results see paper PMC6842543, “Antiparasitic effect of synthetic aromathecins on Leishmania infantum” (BMC Veterinary Research, 2019).
